The results in this text go back to PubChem BioAssay AID449762 (Southern Research Specialized Biocontainment Screening …, 2010).

In the test the test system is M. tuberculosis H37Rv growth inhibition, 7H9 media. The test can be described thus: M. tuberculosis growth inhibition, HTS (AID 449762).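 For all read-outs here: bacterial growth assessed after seven days of incubation.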 The following applies: for IC90: measured here: IC90 growth inhibition.

Inconclusive results are not listed.

By IC50 is commonly meant the concentration at which inhibition is half-maximal. As usually defined, the IC90 is the point of the concentration-response curve where the effect stands at 90%. For the compound `C/C(=N\NC(N)=S)C1C2C3CC4C5CC(C42)C1C53` (stereo not drawn), the IC50 was 28.1 µM and the IC90 amounted to 58.2 µM.
The matching figures for `CCCOc1cccc(-c2nn(-c3ccccc3)cc2/C=C(\C#N)C(=O)NCCCn2ccnc2)c1`: 44.7 µM and 62.3 µM.
As for `Cc1ccc(S(=O)(=O)N(C)c2ccc(OCC(=O)OCc3ccc(C#N)cc3)cc2)cc1`, the IC50 is 8.71 µM and the IC90 came to 13.8 µM.
Regarding `Cc1ccc(C(=O)O/N=C\c2ccc(N3CCCCC3)c([N+](=O)[O-])c2)cc1`, the IC50 is 22.1 µM and the IC90 was 49 µM.
In the case of `CN=c1scc(-c2ccccc2Br)n1/N=C/c1ccc[nH]1`, the IC50 was 50 µM and the IC90 worked out at 54.2 µM.
With `CC(C)c1nc2scc(-c3ccc(Cl)cc3)c2c(=O)n1N`, the IC50 was 81.8 µM and the IC90 was more than 100 µM.
The matching figures for `Cc1cnc(NC(=O)NCC2CCCC(CNC(=O)Nc3ncc(C)s3)C2)s1` (stereo not drawn): 24.8 µM and 28.2 µM.
The matching figures for `O=C(CSc1cccc[n+]1[O-])c1cccs1`: 12 µM and 16.5 µM.
Consider `COc1ccccc1/C=C/C(=O)Nc1ccc(S(=O)(=O)Nc2cc(C)on2)cc1`, for which the IC50 was 5.01 µM and the IC90 amounted to 17.3 µM.
`CCCCNC(=O)Nc1nnc(-c2ccc(OCC)cc2)o1` showed an IC90 of more than 100 µM.
On to `CCOC(=O)CSc1cc(=O)n(C)c2cc(Cl)ccc12`, for which the IC50 is less than 0.2 µM and the IC90 stood at 73.9 µM.
For the compound `c1ccc(/N=C2\N=C(Nc3ccccn3)c3ccccc32)nc1`, the IC50 was 1.08 µM and the IC90 is 1.91 µM.
The matching figures for `Cc1cc(O)c2c(c1)C(=O)c1cc(O)cc(O)c1C2=O`: 91.5 µM and more than 100 µM.
Turning to `Cc1cccc(C)c1OCCCCc1c(C)n[nH]c1C`, the IC50 was 10.9 µM and the IC90 is 26.4 µM.
With `CCCc1cc(-c2nc(-c3ccc(Br)cc3)cs2)ccn1`, the IC50 was 10.3 µM and the IC90 was found to be 20.6 µM.
The matching figures for `Cn1nc([N+](=O)[O-])nc1Sc1ccc(C(C)(C)C)cc1`: 6.13 µM and 7.62 µM.
In the case of `COc1cccc(CC2(CO)CCCN(Cc3[nH]c4ccc(C)cc4c3C)C2)c1` (stereo not drawn), the IC50 is 44 µM and the IC90 amounted to 50.4 µM.
For `Cc1ccc2nc(N/N=C/c3ccccc3C#N)nc(-c3ccccc3)c2c1`, the IC50 is 81.1 µM and the IC90 was more than 100 µM.
Consider `Cn1c(SCc2ccccc2)nc(N)c(N=O)c1=O`, for which the IC50 was 3.5 µM and the IC90 stood at 20.8 µM.
On to `CNc1nc(SCc2ccccc2Cl)nc2c1CCCC2`, for which the half-inhibitory concentration (IC50) was 0.73 µM and the IC90 was determined as 2.52 µM.
On to `C=CCN(CC=C)C(=S)NC(=O)c1ccc(-c2ccccc2)cc1`, for which the IC50 was 10.8 µM and the IC90 is 14.1 µM.
In the case of `C(=N\Nc1nc(-c2ccccc2)cs1)/c1ccncc1`, the IC50 was 47.3 µM and the IC90 amounted to 66.4 µM.
Take `CCOC(=O)CNc1ccc(C(=O)OCC)cc1[N+](=O)[O-]`: the IC50 was 8.45 µM and the IC90 turned out to be 22.6 µM.
Take `CCCCOC(=O)c1c(C)oc2ccc(NS(=O)(=O)c3ccc4c5c(cccc35)C(=O)N4)cc12`: the IC50 was 78.7 µM and the IC90 is more than 100 µM.
Regarding `Cc1ccc(C#CC[N+]2(CC#Cc3ccc(C)cc3)CCCCC2)cc1`, the IC50 is 12.7 µM and the IC90 stood at 14.4 µM.
The matching figures for `Cc1[nH]c2ccccc2c1C(=O)COC(=O)c1ccc([N+](=O)[O-])s1`: 0.59 µM and 2 µM.
Consider `CNc1ccccc1C(=O)OC(C)C(=O)Nc1ccc(Cl)cn1` (stereo not drawn), for which the IC50 is 28.2 µM and the IC90 was found to be 51.3 µM.
Take `CN(Cc1ccc(Br)cc1)C(=O)CCN1C(=O)c2cccc([N+](=O)[O-])c2C1=O`: the IC50 is 29.1 µM and the IC90 is more than 100 µM.
As for `CCc1ccc(-c2csc(-c3c[nH]c4ccccc34)n2)cc1`, the IC50 was 10.7 µM and the 90% effect concentration (IC90) turned out to be 21.7 µM.
The matching figures for `Cc1ccc(-c2noc(-c3cc4ccccc4oc3=O)n2)cc1`: 6.7 µM and more than 100 µM.
For `CCn1cc(Br)c(C(=O)Nc2ccc(C(=O)OC(C)C)cc2)n1`, the IC50 is 35.5 µM and the IC90 stood at 57.8 µM.
Consider `O=C(CCl)Nc1cn(-c2ccccc2)nc1-c1ccccc1`, for which the IC50 was less than 0.2 µM and the IC90 worked out at 1.15 µM.
For `CCCCCCCCn1cnc2c(N)c(C)c(C)cc21`, the IC50 is 37.4 µM and the IC90 was determined as 60 µM.
The matching figures for `CCc1ccc2nc(N(CCCN(C)C)C(=O)c3ccc(S(=O)(=O)N4CCCc5ccccc54)cc3)sc2c1`: 28.1 µM and 33.9 µM.
`CCOC(=O)c1sc2nc3n(c(=O)c2c1C)CCC(C)CC3` (stereo not drawn): the IC50 is 17 µM and the IC90 turned out to be 39 µM.
The matching figures for `Cc1ccc(-c2nc3c(c(=O)c4ccccc4n3C)c(=O)n2Cc2ccco2)cc1`: 11.4 µM and 36.3 µM.
Consider `CNc1ncnc2c1ncn2[C@@H]1O[C@H](CO)[C@@H](O)[C@H]1O`, for which the IC50 is 2.68 µM and the IC90 came to 5.73 µM.
On to `CCCCCCCCCCOC(=O)Cn1c(COc2ccc(Cl)cc2)[n+](C)c2ccccc21`, for which the IC50 is 11.8 µM and the IC90 turned out to be 13.3 µM.
As to `Ic1ccccc1CN[C@@H]1C2CCN(CC2)[C@@H]1C(c1ccccc1)c1ccccc1`, the IC50 was 29.5 µM and the IC90 stood at 38.4 µM.
For the compound `CC(C)[C@H](CO)N(Cc1cccc(F)c1)c1nc(Nc2cccc(Cl)c2)c2ncn(C(C)C)c2n1`, the IC50 was 23.2 µM and the IC90 stood at 35.4 µM.
As to `O=C(CSc1ccccn1)Nc1nonc1[N+](=O)[O-]`, the IC50 was 1.45 µM and the IC90 stood at 2.25 µM.
The matching figures for `O=C1N[C@@H](Cc2ccccc2)C(=O)N2[C@H]3Nc4ccccc4[C@@]3([C@]34C[C@H]5C(=O)N[C@@H](Cc6ccccc6)C(=O)N5[C@H]3Nc3ccccc34)C[C@@H]12`: 79.1 µM and more than 100 µM.
Turning to `Cc1nc(-c2ccc(Cl)cc2)sc1C1(C)CC(c2ccc(C#N)cc2)=NO1` (stereo not drawn), the IC50 is 51.4 µM and the IC90 was more than 100 µM.
The matching figures for `CSc1ccccc1C(=O)NC1CCSc2ccccc21` (stereo not drawn): 9.3 µM and more than 100 µM.
With `Cc1ccc(NC(=O)C2C3/C=C\CCCCC32)cc1C` (stereo not drawn), the IC50 was 2.87 µM and the IC90 was found to be 3.29 µM.
The matching figures for `O=C(O)c1ccc(N2C(=O)/C(=C/c3ccc(-c4ccc([N+](=O)[O-])cc4)o3)C=C2c2ccccc2)cc1`: 17.2 µM and 40.2 µM.
In the case of `O=[N+]([O-])c1ccc(N2CCCCC2)s1`, the IC50 was 7.61 µM and the IC90 stood at 17.9 µM.
Take `Cc1ccc(NC(=O)Cn2ccsc2=N)c([N+](=O)[O-])c1`: the IC50 is 5.48 µM and the IC90 was found to be 12.7 µM.
As for `CC1=NOC(=O)/C1=C/c1ccc(-c2ccc(Cl)cc2)o1`, the concentration for half-maximal inhibition (IC50) is 5.22 µM and the IC90 was 70.3 µM.
In the case of `N/C(Cc1ccc([N+](=O)[O-])cc1)=N\OC(=O)c1ccc2ccccc2c1`, the IC50 is 22.5 µM and the IC90 is more than 100 µM.
With `O=C(Nc1ccc(N2CCN(C(=O)c3ccco3)CC2)cc1)C(c1ccccc1)c1ccccc1`, the IC50 was 12.1 µM and the IC90 was 22.6 µM.
For the compound `COc1ccc(-n2nnnc2S(=O)(=O)CC(=O)N2CCCCC2)cc1`, the IC50 is 12.7 µM and the IC90 came out at 27 µM.
As for `Cc1ccc(C(=O)n2c(N)nc3ccccc32)cc1`, the IC50 was 43.8 µM and the IC90 was more than 100 µM.
The matching figures for `CCSc1ccc2c(c1)N(CCCN1CCN(C)CC1)c1ccccc1S2`: 19.1 µM and 26.5 µM.
The matching figures for `Cc1ccc(C2(c3ccc(C)cc3)CC2C(=O)Nc2ccc([N+](=O)[O-])cc2O)cc1` (stereo not drawn): 19.7 µM and 27.1 µM.
On to `Cc1c(Cl)cccc1-c1ccc(CNCc2ccccn2)o1`, for which the IC50 is 0.7 µM and the IC90 came out at 4.03 µM.
In the case of `CCOP(=O)(OCC)/C(=C/N1CCCCC1)NC(=O)c1ccccc1`, the IC50 is 81.4 µM and the IC90 was more than 100 µM.
For `O=C(NC1CCN(C(=O)N2c3ccccc3Sc3ccccc32)CC1)c1ccccc1F`, the IC50 was 86.1 µM and the IC90 was more than 100 µM.
Take `Clc1ccc(-c2[nH]ncc2N=Nc2ccccc2)cc1`: the IC50 was 31.7 µM and the IC90 is more than 100 µM.
For the compound `O=C1C(=O)N(c2ccccc2)c2ccccc21`, the IC50 is 8.23 µM and the IC90 is 17.7 µM.
The matching figures for `Cc1ccc(Cn2nnnc2CN2CCC(c3nc4ccc(Cl)cc4[nH]3)CC2)cc1`: 26 µM and 35.9 µM.
Turning to `O=C(CCn1c(=O)c2cccn2c2cccnc21)N1CCN(c2cccc(Cl)c2)CC1`, the IC50 was 30.6 µM and the IC90 is 41.8 µM.
`Cc1ccccc1NC1=C/C(=N\S(=O)(=O)c2cccs2)c2ccccc2C1=O`: the IC50 is 7.97 µM and the IC90 is 11.8 µM.
On to `CC(C)c1nnc(NC(=O)CCC(=O)N2CCN(c3ccc(Cl)cc3)CC2)s1`, for which the IC50 is 11.8 µM and the IC90 came to 29.5 µM.
As to `CCOC(=O)C1CCN(C(=O)CSCc2nc(-c3ccc(OCC)cc3)oc2C)CC1`, the IC50 is 42.9 µM and the IC90 amounted to 48.1 µM.
The matching figures for `Clc1ccc(SCc2cc(N3CCOCC3)nc(-c3ccccn3)n2)cc1`: 0.92 µM and 6.27 µM.
For `CSc1ccc(NC(=O)Nc2cccn(Cc3ccccc3)c2=O)cc1`, the IC50 is 18.5 µM and the IC90 is more than 100 µM.
Take `CNC(C)C#Cc1ccc2oc3cc(C)c(C)cc3c(=O)c2c1` (stereo not drawn): the IC50 was 4.55 µM and the IC90 was found to be 17.9 µM.
For the compound `CCC(=O)Oc1ccc(C(=O)Nc2ccc3c(c2)C(=O)N(C2CCCCC2)C3=O)cc1`, the IC50 is 21.2 µM and the IC90 was 44.5 µM.
As to `CN(C(=O)COC(=O)c1sc2ccccc2c1Cl)C1CCCCC1`, the IC50 is 4.8 µM and the IC90 worked out at 15 µM.
Consider `CCCOc1ccc(-c2cnc(SCC(N)=O)nc2N)cc1`, for which the IC50 is 12.1 µM and the IC90 was 50.2 µM.
For `O=C(c1cc2ccccc2o1)N1CCN(S(=O)(=O)c2ccc(Cl)s2)CC1`, the IC50 is 4.01 µM and the concentration for an effect of 90% (IC90) stood at 13.1 µM.
